Experimental data published in patent US11040981B2, “Pyrrolotriazine compounds and methods of inhibiting TAM kinases” (Syros Pharmaceuticals, Inc., priority 2017, dated 2021).

Tests used:
AXL = molecular target: T1, AXL (Homo sapiens, UniProt P30530); experiment: TR-FRET kinase activity assay, AXL; type: biochemical; details: ATP at Km, 60 minutes
T1 sequence (P30530 26-894): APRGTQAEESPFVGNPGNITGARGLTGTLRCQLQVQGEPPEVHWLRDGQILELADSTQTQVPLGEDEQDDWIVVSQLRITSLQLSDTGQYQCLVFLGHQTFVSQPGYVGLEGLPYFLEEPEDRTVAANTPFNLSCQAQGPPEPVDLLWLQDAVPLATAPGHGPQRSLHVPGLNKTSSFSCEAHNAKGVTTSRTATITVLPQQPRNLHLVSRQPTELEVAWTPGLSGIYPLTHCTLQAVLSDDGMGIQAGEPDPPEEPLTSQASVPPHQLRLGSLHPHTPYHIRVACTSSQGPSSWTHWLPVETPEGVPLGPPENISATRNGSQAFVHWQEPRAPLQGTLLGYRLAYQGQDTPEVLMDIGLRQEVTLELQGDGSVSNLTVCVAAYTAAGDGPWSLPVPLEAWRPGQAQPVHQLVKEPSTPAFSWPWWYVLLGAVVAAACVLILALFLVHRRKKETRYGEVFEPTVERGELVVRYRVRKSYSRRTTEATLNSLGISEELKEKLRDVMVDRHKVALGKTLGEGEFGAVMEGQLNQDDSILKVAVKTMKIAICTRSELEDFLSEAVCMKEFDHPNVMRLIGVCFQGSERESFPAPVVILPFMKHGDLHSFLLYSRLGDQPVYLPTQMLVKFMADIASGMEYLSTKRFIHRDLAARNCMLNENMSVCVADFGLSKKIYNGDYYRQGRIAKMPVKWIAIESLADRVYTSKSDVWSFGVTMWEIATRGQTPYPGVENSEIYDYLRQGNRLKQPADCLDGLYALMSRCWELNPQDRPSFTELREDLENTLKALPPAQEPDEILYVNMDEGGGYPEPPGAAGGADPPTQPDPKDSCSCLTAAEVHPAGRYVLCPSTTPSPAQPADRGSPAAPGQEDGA
Summary of the method: (§1)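 Recombinant human kinases, fluorescent peptide substrate, ATP at Km; 1 h RT, pH 7.5. EDTA-quenched, Eu antibody added, TR-FRET read; IC50 determined.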

FLT3 = molecular target: T2, FLT3 (Homo sapiens, UniProt P36888); experiment: TR-FRET kinase activity assay, FLT3; type: biochemical; details: ATP at Km, 60 minutes
T2 sequence (P36888 27-993): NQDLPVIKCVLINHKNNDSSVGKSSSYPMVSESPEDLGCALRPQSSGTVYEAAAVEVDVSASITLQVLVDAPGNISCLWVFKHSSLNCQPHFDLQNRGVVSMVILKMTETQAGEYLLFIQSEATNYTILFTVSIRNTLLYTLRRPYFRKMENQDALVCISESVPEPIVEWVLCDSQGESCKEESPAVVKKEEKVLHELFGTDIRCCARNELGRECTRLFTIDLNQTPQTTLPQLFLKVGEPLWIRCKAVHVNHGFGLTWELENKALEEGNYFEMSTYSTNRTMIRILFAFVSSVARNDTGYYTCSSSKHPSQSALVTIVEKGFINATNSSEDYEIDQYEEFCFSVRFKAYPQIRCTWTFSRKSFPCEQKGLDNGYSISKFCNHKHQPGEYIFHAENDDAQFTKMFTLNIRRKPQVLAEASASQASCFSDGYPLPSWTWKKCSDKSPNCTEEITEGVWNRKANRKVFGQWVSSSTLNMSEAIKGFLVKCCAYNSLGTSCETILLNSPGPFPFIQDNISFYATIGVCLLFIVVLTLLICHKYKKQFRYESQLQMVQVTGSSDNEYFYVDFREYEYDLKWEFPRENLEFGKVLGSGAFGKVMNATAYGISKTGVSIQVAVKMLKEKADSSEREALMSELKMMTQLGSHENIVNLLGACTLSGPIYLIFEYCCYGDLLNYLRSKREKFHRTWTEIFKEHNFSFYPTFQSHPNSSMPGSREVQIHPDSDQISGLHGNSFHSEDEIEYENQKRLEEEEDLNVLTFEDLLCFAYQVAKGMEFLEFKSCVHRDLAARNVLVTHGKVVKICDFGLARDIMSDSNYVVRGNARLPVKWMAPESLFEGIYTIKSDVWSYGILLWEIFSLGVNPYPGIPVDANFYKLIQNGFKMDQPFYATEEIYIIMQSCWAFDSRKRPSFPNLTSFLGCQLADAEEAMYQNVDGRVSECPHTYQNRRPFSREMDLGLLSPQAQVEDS
Summary of the method: as §1

IC50 (AXL) [nM]	IC50 (FLT3) [nM]	SMILES
≤ 100	1000 to 10000	COC[C@H](C)Nc1ncc2c(-c3cnn(C(C)(C)c4nnco4)c3)cc([C@H]3CC[C@H](O)CC3)n2n1 [Compound 604]
≤ 100	100 to 1000	COC[C@H](C)Nc1ncc2c(-c3ccc(C(=O)N4CCN(C)CC4)cc3)cc([C@H]3CC[C@H](O)CC3)n2n1 [Compound 144]
≤ 100	100 to 1000	COC[C@H](C)Nc1ncc2c(-c3cnn(C(C)(C)c4nnc(C)s4)c3)cc([C@H]3CC[C@H](O)CC3)n2n1 [Compound 625]
≤ 100	≤ 100	C[C@@H](CC(F)(F)F)Nc1ncc2c(-c3cnn(C(C)(C)C(=O)N4CCN(C)CC4)c3)cc(C3CCC(O)CC3)n2n1 (stereo partly drawn) [Compound 626]
1000 to 10000	1000 to 10000	COC[C@H](C)N(C)c1ncc2c(-c3ccnc(C)c3)cc([C@H]3CC[C@H](OC)CC3)n2n1 [Compound 176, 7-((trans)-4-methoxycyclohexyl)-N-((S)-1-methoxypropan-2-yl)-N-methyl-5-(2-methylpyridin-4-yl)pyrrolo[2,1-f][1,2,4]triazin-2-amine]
≤ 100	100 to 1000	COC[C@H](C)Nc1ncc2c(-c3ccnc(N4CC(C)(O)C4)c3)cc(C3CCC(O)CC3)n2n1 (stereo partly drawn) [Compound 632]
≤ 100	100 to 1000	C[C@@H](COC(F)F)Nc1ncc2c(-c3ccnc(N4CCOC(C(C)(C)O)C4)c3)cc([C@H]3CC[C@H](O)CC3)n2n1 (stereo partly drawn) [Compound 598]
100 to 1000	100 to 1000	COCC1(Nc2ncc3c(-c4ccc(CN5CCN(C)CC5)cc4)cc(C4CCC(O)CC4)n3n2)CC1 (stereo not drawn) [Compound 149]
≤ 100	100 to 1000	COC[C@H](C)Nc1ncc2c(-c3cnn(CC(C)C)c3)cc([C@H]3CC[C@H](O)CC3)n2n1 [Compound 167]
≤ 100	1000 to 10000	COC[C@H](C)Nc1ncc2c(-c3cnn(CC(=O)O)c3)cc([C@H]3CC[C@H](O)CC3)n2n1 [Compound 160]
≤ 100	100 to 1000	COC[C@H](C)Nc1ncc2c(-c3ccc([C@@H](C)N4CCOCC4)cc3)cc([C@H]3CC[C@H](O)CC3)n2n1 [Compound 156]
≤ 100	100 to 1000	COC[C@H](C)Nc1ncc2c(-c3ccc(CN4CCN(c5nccc(C)n5)CC4)cc3)cc([C@H]3CC[C@H](O)CC3)n2n1 [Compound 154, (trans)-4-(2-(((S)-1-methoxypropan-2-yl)amino)-5-(4-((4-(4-methylpyrimidin-2-yl)piperazin-1-yl)methyl)phenyl)pyrrolo[2,1-f][1,2,4]triazin-7-yl)cyclohexanol]
100 to 1000	100 to 1000	COC[C@H](C)Nc1ncc2c(-c3cccc(CN4CCCC4)c3)cc([C@H]3CC[C@H](O)CC3)n2n1 [Compound 179]
≤ 100	≤ 100	COC[C@H](C)Nc1ncc2c(-c3ccc([C@H](C)N4CCOCC4)cc3)cc([C@H]3CC[C@H](O)CC3)n2n1 [Compound 157]
≤ 100	≤ 100	C[C@@H](COC(F)F)Nc1ncc2c(-c3cnn(C(C)(C)C(=O)N4CC5(COC5)C4)c3)cc([C@H]3CC[C@H](O)CC3)n2n1 [Compound 613]
≤ 100	100 to 1000	CCC1(O)CCC(c2cc(-c3cnn(C4COC4)c3)c3cnc(NC(C)COC)nn23)CC1 (stereo not drawn) [Compound 615]
≤ 100	1000 to 10000	COC[C@H](C)Nc1ncc2c(-c3cnn(C(C)(C)c4ncc(C)o4)c3)cc(C3CCC(O)CC3)n2n1 (stereo partly drawn) [Compound 628]
≤ 100	100 to 1000	COC[C@H](C)Nc1ncc2c(-c3ccc(CN4CCN(C)CC4)cc3)cc([C@H]3CC[C@@H](O)CC3)n2n1 [Compound 155]

IC50 (AXL) [nM]	IC50 (FLT3) [nM]	SMILES
100 to 1000	100 to 1000	COC[C@H](C)Nc1ncc2c(-c3cnn(C4CCOCC4)c3)cc([C@H]3CC[C@H](O)CC3)n2n1 [Compound 151]
≤ 100	≤ 100	COCC(C)Nc1ncc2c(-c3ccc(C4(C(=O)N5CCS(=O)(=O)CC5)CC4)cc3)cc(C3CCC(O)CC3)n2n1 (stereo not drawn) [Compound 172]
≤ 100	100 to 1000	COC[C@H](C)Nc1ncc2c(-c3ccnc(C(C)(C)O)c3)cc([C@H]3CC[C@H](O)CC3)n2n1 [Compound 619]
≤ 100	≤ 100	COC[C@H](C)Nc1ncc2c(-c3ccc([C@H](C)N4CCCC4)cc3)cc([C@H]3CC[C@H](O)CC3)n2n1 [Compound 165]
≤ 100	1000 to 10000	COC[C@H](C)Nc1ncc2c(-c3cnn(C(C)(C)c4nnc(C(C)C)o4)c3)cc([C@H]3CC[C@H](O)CC3)n2n1 [Compound 600]
≤ 100	100 to 1000	COCC(C)Nc1ncc2c(-c3cccc(C(C)N4CCCC4)c3)cc(C3CCC(O)CC3)n2n1 (stereo not drawn) [Compound 158]
100 to 1000	100 to 1000	COCC(C)Nc1ncc2c(-c3ccc(C(C)N4CCOCC4)cc3)cc(C3CCC(O)CC3)n2n1 (mixture of isomers) [Compound 180]
1000 to 10000	1000 to 10000	COC[C@H](C)Nc1ncc2c(N3CCCC3=O)cc([C@H]3CC[C@H](O)CC3)n2n1 [Compound 177]
≤ 100	100 to 1000	[2H]C([2H])([2H])OCC(C)Nc1ncc2c(-c3ccnc(N4CCOCC4)c3)cc(C3CCC(O)CC3)n2n1 (stereo not drawn) [Compound 629]
≤ 100	100 to 1000	CCOC(=O)Cn1cc(-c2cc([C@H]3CC[C@H](O)CC3)n3nc(N[C@@H](C)COC)ncc23)cn1 [Compound 159]
100 to 1000	1000 to 10000	COC[C@H](C)Nc1ncc2c(-c3cnn(CCN4CCOCC4)c3)cc([C@H]3CC[C@H](O)CC3)n2n1 [Compound 153]
≤ 100	100 to 1000	COCC(C)Nc1ncc2c(-c3ccc(C(C)(C)c4nnc(C)o4)s3)cc(C3CCC(O)CC3)n2n1 (stereo not drawn) [Compound 611]
≤ 100	1000 to 10000	COC[C@H](C)Nc1ncc2c([C@H]3CC[C@H](C(=O)N4CCN(C)CC4)CC3)cc([C@H]3CC[C@H](O)CC3)n2n1 [Compound 606]
100 to 1000	1000 to 10000	COC[C@H](C)Nc1ncc2c(-c3ccnc(C)c3)cc([C@H]3CC[C@H](O)CC3)n2n1 [Compound 146]
≤ 100	100 to 1000	COC[C@H](C)Nc1ncc2c(-c3ccnc(N4CCC(C)(O)CC4)c3)cc([C@H]3CC[C@H](O)CC3)n2n1 [Compound 605]
≤ 100	1000 to 10000	COC[C@H](C)Nc1ncc2c([C@H]3CC[C@@H](C(=O)N4CCN(C)CC4)CC3)cc([C@H]3CC[C@H](O)CC3)n2n1 [Compound 607]
≤ 100	100 to 1000	C[C@@H](COC(F)F)Nc1ncc2c(-c3ccnc(N4CCO[C@@H](C(C)(C)O)C4)c3)cc([C@H]3CC[C@H](O)CC3)n2n1 [Compound 597]

SMILES	IC50 (AXL) [nM]	IC50 (FLT3) [nM]
COC[C@H](C)Nc1ncc2c(C3=CC4CCC(C3)N4)cc([C@H]3CC[C@H](O)CC3)n2n1 (stereo partly drawn) [Compound 170]	≤ 100	1000 to 10000
